Experimental data as given in patent publication US20070088043A1, “Novel HDAC inhibitors” (ORCHID RESEARCH LABORATORIES LIMITED., priority 2005, published 2007).

Columns and labels:
NCIH 460 cells = assay: Anti-cancer screen (MTT), NCIH460; type: cell-based; parameters: NCIH460 TGI: unit: uM; conditions: for GI50: concentration to decrease % growth by 50%; for IC100: read-out: NCIH460 TGI; for LC50: concentration to decrease % growth by 150%
Procedure: (§1) Experimental drugs are screened for anti-cancer activity in three cell lines for their GI50, TGI and LC50 values (using five concentrations for each compound). The cell lines are maintained in DMEM containing 10% fetal bovine serum. 96 well micro titer plates are inoculated with cells in 100 μL for 24 h at 37° C., 5% CO2, 95% air and 100% relative humidity. 5000 HCT 116 cells/well, 5000 NCIH 460 cells/well and 5000 U251 cells/well are plated. A separate plate with these cell lines is also inoculated to determine cell viability before the addition of the compounds (T0).
(§2) Following 24-hour incubation, experimental drugs are added to the 96 well plates. Each plate contains one of the above cell lines and the following in triplicate: five different concentrations (0.01, 0.1, 1, 10 and 100 μM) of four different compounds, appropriate dilutions of a cytotoxic standard and control (untreated) wells. Compounds are dissolved in DMSO to make 20 mM stock solutions on the day of drug addition and frozen at −20° C. Serial dilutions of these 20 mM stock solutions are made in complete growth medium such that 100 μL of these drug solutions in medium, of final concentrations equaling 0.01, 0.1, 1, 10 and 100 μM can be added to the cells in triplicate. Standard drugs whose anti-cancer activity has been well documented and which are regularly used are doxorubicin and SAHA.
(§3) For To measurement, 24 hours after seeding the cells, 10 μL of 3-(4,5-Dimethyl-2-thiazolyl)-2,5-diphenyl-2H-tetrazolium (MTT) solution per well is added and incubation carried out for 3 hours at 37° C., 5% CO2, 95% air and 100% relative humidity, protected from light. Cells incubated with compounds for 48 hours are treated similarly except with the addition of 20 μL MTT solution per well and a subsequent incubation under the same conditions. After 3 hours of MTT incubation, well contents are aspirated carefully followed by addition of 150 μL DMSO per well. Plates are agitated to ensure solution of the formazan crystals in DMSO and absorbance read at 570 nm. […]

HCT 116 cells = assay: Anti-cancer screen (MTT), HCT116; type: cell-based; parameters: HCT116 TGI: unit: uM; conditions: for GI50: concentration to decrease % growth by 50%; for IC100: read-out: HCT116 TGI; for LC50: concentration to decrease % growth by 150%
Procedure: as §1, §2, §3

MDAMB231/U251 = assay: Anti-cancer screen (MTT), MDAMB231/U251; type: cell-based; parameters: MDAMB231/U251 TGI: unit: uM; conditions: MDAMB231/U251 cells, 48 hours; for GI50: concentration to decrease % growth by 50%; for LC50: concentration to decrease % growth by 150%; for IC100: read-out: MDAMB231/U251 TGI
Procedure: as §1, §2, §3

[1] = tested on: NCIH460, HCT116, MDAMB231/U251; assay: Anti-cancer screen, mean GI50 over the cell lines; type: cell-based; conditions: in µM
Procedure: as §1, §2, §3

[2] = tested on: HDAC (Mouse Liver Extract); assay: Histone Deacetylase (HDAC) Inhibition Assay using Boc-Lys (Ac)-AMC Substrate; type: biochemical; conditions: mouse liver enzyme, NA = No Activity; for HDAC Inhibition 1 μM / HDAC Inhibition 10 μM: in % (unit assumed)
Excerpt: HDAC Activitv Screening: Histone Deacetylase (HDAC) Inhibition Assay using Boc-Lys (Ac)-AMC Substrate:
Inhibition of HDAC has been implicated to modulate transcription and to induce apoptosis or differentiation in cancer cells. The fluorometric assay provides a fast and fluorescence based method that eliminates radioactivity, extractions or chromatography, as used in traditional assays. The assay based on two steps. First, the HDAC fluorometric substrate, which comprises an acetylated lysine side chain, is incubated with a sample containing HDAC activity (Mouse Liver Extract). Deacetylation of the substrate sensitizes the substrate, in the second step; treatment with the Trypsin stop solution produces a fluorophore that can be easily analyzed using fluorescence plate reader.
Assay was done in 96 well black microplate and total volume of the assay is 100 ul. Mouse liver enzyme is diluted 1:6 with HDAC buffer. Enzyme cocktail made of 10 ul of diluted enzyme and 30 ul of HDAC buffer. 40 ul of enzyme cocktail dispensed into each well. 10 ul of different concentrations of inhibitor added in to each well, except enzyme control well. Preincubated the plate at 30° C. for 5 minutes. The HDAC reaction is started by adding 50 ul of HDAC substrate (Boc-Lys (Ac)-AMC Substrate) solution. Incubated the plate at 30° C. for 30 minutes. Adding 100 ul of Trypsin stop solution stops the reaction. The plate is incubated again at 30° C. for 20-30 minutes. The release of AMC is monitored by measuring the fluorescence at excitation wavelength of 365 or 360 nm and emission wavelength of 440 or 460 nm. Buffer and substrate alone kept for blank subtraction. (Dennis Wegener et al, Anal. Biochem, 321, 2003, 202-208).

[3] = concentration to decrease % growth by 100%
[4] = Homo sapiens, NCI-H460, NCIH460 cells, 48 hours, MTT
[5] = Homo sapiens, NCI-H460, NCIH460 cells, 48 hours, MTT, concentration to decrease % growth by 100%
[6] = Homo sapiens, HCT-116, HCT116 cells, 48 hours, MTT
[7] = Homo sapiens, HCT-116, HCT116 cells, 48 hours, MTT, concentration to decrease % growth by 100%

Compound | CC50 (NCIH 460 cells) [µM] | GI50 (NCIH 460 cells; NCIH460 cells, 48 hours, MTT) [µM] | NCIH460 TGI (NCIH 460 cells; NCIH460 cells, 48 hours, MTT, concentration to decrease % growth by 100%) | CC50 (HCT 116 cells) [µM] | GI50 (HCT 116 cells; HCT116 cells, 48 hours, MTT) [µM] | HCT116 TGI (HCT 116 cells; HCT116 cells, 48 hours, MTT, concentration to decrease % growth by 100%) | GI50 (MDAMB231/U251) [µM] | MDAMB231/U251 TGI (MDAMB231/U251; [3]) | LC50 (MDAMB231/U251) [µM] | Mean GI50 [1] | HDAC Inhibition 1 μM [2] | HDAC Inhibition 10 μM [2] | GI50 (NCIH 460 cells; [4]) [µM] | IC100 (NCIH 460 cells; [5]) [µM] | LC50 (NCIH 460 cells; [4]) [µM] | GI50 (HCT 116 cells; [6]) [µM] | IC100 (HCT 116 cells; [7]) [µM] | LC50 (HCT 116 cells; [6]) [µM] | IC100 (MDAMB231/U251; [3]) [µM] | IC50 [2] [µM]
CCOc1ccc2nc(NC(=O)CN3CCN(C(=O)CCCCCCC(=O)NO)CC3)sc2c1 [Example 32, 8-{4-[2-(6-Ethoxy-1,3-benzothiazol-2-ylamino)-2-oxoethyl]piperazin-1-yl}-N-hydroxy-8-oxo octanamide] | > 100 | 38 | 72 | 95 | 7 | 42 | 1.5 | 9.5 | 98 | 15.50 | 60.30 | 98.91 | – | – | – | – | – | – | – | –
Cc1csc(NC(=O)CN2CCN(C(=O)CCCCCCC(=O)NO)CC2)n1 [Example 33, 8-{4-[2-(4-Methyl-1,3-thiazol-2-ylamino)-2-oxoethyl]piperazin-1-yl}-N-hydroxy-8-oxo octanamide] | – | – | – | – | – | – | 10 | – | > 100 | 51.67 | 50.09 | 92.38 | 90 | > 100 | > 100 | 55 | > 100 | > 100 | 98 | –
O=C(CCCCCCC(=O)N1CCN(CC(=O)Nc2nccs2)CC1)NO [Example 34, 8-{4-[2-(1,3-Thiazol-2-ylamino)-2-oxoethyl]piperazin-1-yl}-N-hydroxy-8-oxo octanamide] | – | – | – | – | – | – | 6 | – | > 100 | 28 | 45.65 | 89.86 | > 100 | > 100 | > 100 | 50 | > 100 | > 100 | 74 | –
Cc1ccc2nc(NC(=O)CN3CCN(C(=O)CCCCCCC(=O)NO)CC3)sc2c1 [Example 35, 8-{4-[2-(6-Methyl-1,3-benzothiazol-2-ylamino)-2-oxoethyl]piperazin-1-yl}-N-hydroxy-8-oxo octanamide] | – | – | – | – | – | – | 5 | – | > 100 | 23 | 68.3 | 96.93 | 56 | 100 | > 100 | 8 | 40 | 92 | 45 | –
O=C(CCCCCCC(=O)N1CCN(CC(=O)Nc2cccc(F)c2)CC1)NO [Example 36, 8-{4-[2-(3-Fluorophenyl-2-ylamino)-2-oxoethyl]piperazin-1-yl}-N-hydroxy-8-oxo octanamide] | – | – | – | – | – | – | 27 | – | > 100 | 39.67 | 98.2 | 72.99 | 52 | > 100 | > 100 | 40 | 82 | > 100 | 62 | 0.95
CCOc1ccc2nc(NC(=O)CN3CCN(C(=O)CCCCCCC(=O)N(O)C(C)=O)CC3)sc2c1 [Example 37, 8-{4-[2-(6-Ethoxy-1,3-benzothiazol-2-ylamino)-2-oxoethyl]piperazin-1-yl}-N-acetyl-N-hydroxy-8-oxooctanamide] | – | – | – | – | – | – | 4 | – | 95 | 17.00 | 55.57 | 94.70 | 40 | 74 | > 100 | 7 | 44 | > 100 | 45 | –
